Read-outs that look alike come from different tables or passages of the source. Marks after values point to notes of the source that are not given here.

Details of data set [1]: method as in PMID 36548517. The settings on record: 0.1 M phosphate buffer (pH 2.1), 25 °C, cited from earlier work.
Details of data set [2]: method as in PMID 36548517. The settings on record: phase solubility, 0.1 M phosphate buffer (pH 2.1), 25 °C, mean ± SD (n = 3); cited from earlier work.
Details of data set [3]: method as in PMID 36548517. To be noted: phase solubility, 0.1 M phosphate buffer (pH 2.1), 25 °C, mean ± SD (n = 3); cited from earlier work. This is another data set of the same source.
Details of data set [4]: method as in PMID 36548517. To be noted: proton Y monitored, 0.1 M sodium borate/D2O, 25 °C, total concentration 1.0 × 10^−2 M; cited from earlier work.
A short description of data set [5]: Phase solubility study with αCD. Type of data set: physicochemical. The settings on record: 0.1 M phosphate buffer (pH 2.1), 25 °C; for Apparent stability constant K αCD / Guest/Host Ratio αCD: phase solubility, mean ± SD (n = 3). The method, then: (§1) Phase solubility studies were conducted according to the method described by Higuchi and Connors. Briefly, 1 mL of CD solutions (0 to 14 mM, pH 2.1) were added to excess amounts of PB or related compounds placed in screw cap tubes. The resulting samples were shaken for 72 h at 25 °C and 120 rpm (Multi Shaker MMS-3020 in a temperature control chamber FMC-1000; Eyela Co., Ltd., Tokyo, Japan). The resulting suspensions were filtered through 0.2 µm membrane filters (Minisart RC 4, Sartorius Stedim Lab Ltd., Stonehouse, UK) and diluted appropriately. The solubility of PB or related compounds was determined by HPLC, and the data were used to construct phase solubility diagrams. The guest/host ratios for the systems showing BS-type solubility diagrams were estimated as the quotient of the amount of undissolved guest at the start of the plateau region and the CD concentration range corresponding to the plateau region.
(§2) HPLC measurements were performed according to a previous report using a JASCO HPLC system (Jasco Corp., Tokyo, Japan). A YMC-PACK ODS AM 303 column (5 µm, 250 mm × 4.6 mm, YMC Co., Kyoto, Japan) was used as the stationary phase and was maintained at 40 °C. […] For PC and PH, the elution program used was 0–7 min (50–100% B), 7–10 min (100% B), and 10–15 min (100–50% B) at a constant flow rate of 1 mL/min.

The nature of data set [6]: Phase solubility study with βCD. The settings on record: 0.1 M phosphate buffer (pH 2.1), 25 °C, mean ± SD (n = 3). The data set is classed as physicochemical. The procedure: as §1, §2
Data set [7] in a line: Phase solubility study with γCD. Type of data set: physicochemical. The settings on record: 0.1 M phosphate buffer (pH 2.1), 25 °C, mean ± SD (n = 3). The method, then: as §1, §2
Data set [8] can be described thus: 1H NMR continuous variation plot with αCD. Type of data set: binding. The settings on record: proton Y monitored, 0.1 M sodium borate/D2O, 25 °C, total concentration 1.0 × 10^−2 M. The procedure:
^1H NMR spectra were obtained using a JEOL-A500 spectrometer (Tokyo, Japan) operating at 500 MHz in 5 mm sample tubes at 25 °C using D2O/0.1 M sodium borate (pH meter reading of 9.4) as solvent. The resonance at 4.68 to 4.75 ppm, due to residual solvents (H2O and HOD), was used as an internal reference. Chemical shifts are given as parts per million (ppm), with an accuracy of ±0.001. No external reference was used to avoid possible interactions with the CDs. The ^1H NMR signals of the guests (PB and related compounds) were assigned by 2D ^1H-^1H correlation spectroscopy (COSY), whereas those of the CDs were assigned according to a previous report. The complex stoichiometries were determined by the continuous variation method, where the total concentrations of CD and guest were kept constant at 1.0 × 10^−2 M. In addition, the changes in the chemical shift of CDs and the guest protons in their equimolar systems (5.0 × 10^−3 M) were monitored. […] The stability constant values of the complexes formed by PH were determined from the curves. Two-dimensional ROESY NMR experiments were performed for the CD-PH systems in the phase-sensitive mode using the same spectrometer. Each spectrum consisted of a matrix of F2 by F1 covering a sweep width of 5000 Hz with 36 scans. The spin-lock mixing time was 800 ms, with a relaxation delay of 4 s, and a 90° pulse width of 11.8 µs. The concentration of guest and host were 2.5 × 10^−2 M/1.0 × 10^−1 M (PH/αCD), 1.5 × 10^−2 M/2.5 × 10^−2 M (PH/βCD), and 2.5 × 10^−2 M/2.5 × 10^−2 M (PH/γCD). The stability constants (K1:1) of the PH–CD complexes were estimated by analyzing the first-order dependences of the chemical shift change of PH protons on CD concentration using Equation (2):(2) δobs=δ0+δ1K1:1CDf/1+K1:1CDf where δ0 and δobs are chemical shifts of PH protons without or with CD, respectively, and δ1 is the chemical shift of PH protons in the 1:1 complex.

The nature of data set [9]: 1H NMR molar ratio titration with αCD (stability constant). The data set is classed as binding. The procedure:
(§3) ^1H NMR spectra were obtained using a JEOL-A500 spectrometer (Tokyo, Japan) operating at 500 MHz in 5 mm sample tubes at 25 °C using D2O/0.1 M sodium borate (pH meter reading of 9.4) as solvent. The resonance at 4.68 to 4.75 ppm, due to residual solvents (H2O and HOD), was used as an internal reference. Chemical shifts are given as parts per million (ppm), with an accuracy of ±0.001. No external reference was used to avoid possible interactions with the CDs. The ^1H NMR signals of the guests (PB and related compounds) were assigned by 2D ^1H-^1H correlation spectroscopy (COSY), whereas those of the CDs were assigned according to a previous report. The complex stoichiometries were determined by the continuous variation method, where the total concentrations of CD and guest were kept constant at 1.0 × 10^−2 M. In addition, the changes in the chemical shift of CDs and the guest protons in their equimolar systems (5.0 × 10^−3 M) were monitored. […] The stability constant values of the complexes formed by PH were determined from the curves. […]
(§4) The equation was analyzed by the iteration method since the concentration of free CD ([CD]f) is unknown unless K1:1 had been determined beforehand. […] Therefore, by setting [CD]f = [CD]t as a first approximation, Equation (2) was analyzed by a nonlinear least-squares method, and, in turn, [CD]f values were calculated using the obtained apparent K1:1 value. […]

Data set [10] can be described thus: 1H NMR molar ratio titration with βCD (stability constant). The data set is classed as binding. The procedure:
as §3, §4

Data set [11] in a line: 1H NMR molar ratio titration with γCD (stability constant). Type of data set: binding. The method, then:
as §3, §4

Where [12] appears, read: NMR value (pH 9.4) vs phase solubility value (pH 2.1).

`O=C(O)CCCc1ccccc1` [PB, 4-phenylbutyrate]: the “Phase solubility diagram type with αCD” value in data set [1] was “AL-type”. For the same compound, the “Apparent stability constant K αCD” value in data set [1] (phase solubility, mean ± SD (n = 3)) is given as 481 ± 26 ^a M^−1. Besides, in data set [2], the “Apparent stability constant K βCD” value is on record as 178 ± 23 ^a M^−1 and the “Guest/Host Ratio βCD” value was 1.02 ± 0.05 ^b. Further, in [3], the “Apparent stability constant K γCD” value is reported as 119 ± 9 ^a M^−1 and the “Guest/Host Ratio γCD” value was 2.14 ± 0.08 ^b. Also, the “Maximum of continuous variation plot, guest/(guest + host) mole fraction, αCD” value in data set [4] is 0.5.

For the compound `O=C(O)CCCCCc1ccccc1` [PC, 6-phenylcaproic acid], in data set [5], the “Phase solubility diagram type with αCD” value was “BS-type”, the “Apparent stability constant K αCD” value came to 1185 ± 35 M⁻¹ and the “Guest/Host Ratio αCD” value amounted to 0.55 ± 0.03. In addition, in data set [6], the “Apparent stability constant K βCD” value came out at 2283 ± 134 M⁻¹ and the “Guest/Host Ratio βCD” value came out at 1.08 ± 0.01. In addition, in data set [7], the “Apparent stability constant K γCD” value came to 499 ± 59 M⁻¹ and the “Guest/Host Ratio γCD” value is recorded as 2.30 ± 0.03. In [8], the “Maximum of continuous variation plot, guest/(guest + host) mole fraction, αCD” value was found to be 0.35.

For `O=C(O)CCCCCCc1ccccc1` [PH, 7-phenylheptanoic acid], in [5], the “Phase solubility diagram type with αCD” value is “BS-type”, the “Apparent stability constant K αCD” value was found to be 2500 ± 50 M⁻¹ and the “Guest/Host Ratio αCD” value amounted to 0.44 ± 0.01. In data set [6], the “Apparent stability constant K βCD” value was determined as 7458 ± 52 M⁻¹ and the “Guest/Host Ratio βCD” value is given as 1.02 ± 0.01. Also, in data set [7], the “Apparent stability constant K γCD” value was determined as 1213 ± 18 M⁻¹ and the “Guest/Host Ratio γCD” value was determined as 2.20 ± 0.01. Moreover, the “Reduction of stability constant of αCD complex compared to value at pH 2.1” value in data set [9] (setting [12]) amounted to 20 fold. Besides, the “Stability constant K1:1 of αCD complex from 1H NMR chemical shift change” value in data set [9] (determined from protons A and Y, 0.1 M sodium borate/D2O (pH 9.4), 25 °C) stood at 123 ± 2 M⁻¹. For the same compound, the “Reduction of stability constant of βCD complex compared to value at pH 2.1” value in [10] (setting [12]) was found to be 3 fold. Besides, the “Stability constant K1:1 of βCD complex from 1H NMR chemical shift change” value in data set [10] (determined from protons A and X, 0.1 M sodium borate/D2O (pH 9.4), 25 °C) turned out to be 2513 ± 469 M⁻¹. Also, the “Reduction of stability constant of γCD complex compared to value at pH 2.1” value in data set [11] (setting [12]) came to 3 fold. The “Stability constant K1:1 of γCD complex from 1H NMR chemical shift change” value in [11] (determined from protons C and X, 0.1 M sodium borate/D2O (pH 9.4), 25 °C) is 370 ± 6 M⁻¹. The “Maximum of continuous variation plot, guest/(guest + host) mole fraction, αCD” value in [8] was found to be 0.35.

Consider `O=C(O)CCc1ccccc1` [PP, 3-phenylpropionic acid], for which, in data set [5], the “Phase solubility diagram type with αCD” value is “AL-type” and the “Apparent stability constant K αCD” value amounted to 226 ± 5 M⁻¹. Besides, the “Apparent stability constant K βCD” value in data set [6] worked out at 74 ± 3 M⁻¹. Moreover, the “Apparent stability constant K γCD” value in data set [7] is 34 ± 1 M⁻¹.

As to `O=C(O)CCCCc1ccccc1` [PV, 5-phenylvaleric acid], in data set [5], the “Phase solubility diagram type with αCD” value was “AL-type” and the “Apparent stability constant K αCD” value is 639 ± 20 M⁻¹. In data set [6], the “Apparent stability constant K βCD” value was found to be 838 ± 52 M⁻¹ and the “Guest/Host Ratio βCD” value is 0.99 ± 0.05. For the same compound, in [7], the “Apparent stability constant K γCD” value was found to be 223 ± 7 M⁻¹ and the “Guest/Host Ratio γCD” value was determined as 2.21 ± 0.03. The “Maximum of continuous variation plot, guest/(guest + host) mole fraction, αCD” value in data set [8] is listed as 0.35.

The values are drawn from publication PMC10606765, “Study of the Structural Chemistry of the Inclusion Complexation of 4-Phenylbutyrate and Related Compounds with Cyclodextrins in Solution: Differences in Inclusion Mode with Cavity Size Dependency” (International Journal of Molecular Sciences, 2023).
